*1 amine or outer side, *2 acyl side, *3 side chain or, on linkers, in order; H or OH if unused. Where a SMILES comes first, the peptide text is derived from it. Bridges are numbered along the chain shown (N, C = ends). Side-chain parts run from the residue outwards. [ ]: non-standard residue; d: D form. The star is where a group is joined. C20 diacid = O=C(O)CCCCCCCCCCCCCCCCCCC(=O)*; γGlu = O=C(O)[C@H](CCC(=O)[*:2])N[*:1]; AEEA = NCCOCCOCC(=O)O; Aib = CC(C)(N)C(=O)O
Assay: Pharmacokinetic evaluation in C57BL/6 mice
Assay type: in vivo
Conditions: mouse, plasma, 0.048 mg/kg
Experimental: To test the pharmacokinetics of compounds in C57BL/6 mice in vivo
The pharmacokinetic characteristics of the compounds in rodents after intravenous injection and subcutaneous injection were tested according to the standard protocol. In the experiment, the candidate compounds were formulated into clear solutions, and a single intravenous injection (IV, 0.048 mpk) and subcutaneous injection (SC, 0.048 mpk) were given to the mice. The vehicle for intravenous injection was PBS buffer (pH=7), and the vehicle for subcutaneous injection was citrate buffer (20 mM, pH=7). Whole blood was collected and prepared to obtain plasma. Drug concentration was analyzed by LC-MS/MS method, and pharmacokinetic parameters were calculated by Phoenix WinNonlin software.

Work on CC[C@H](C)[C@H](NC(=O)[C@H](CC(C)C)NC(=O)[C@H](Cc1c[nH]c2ccccc12)NC(=O)[C@@H]1CCC(=O)NCCCC[C@H](NC(=O)[C@H](CCC(N)=O)NC(=O)[C@H](C)NC(=O)[C@H](CCCCNC(=O)COCCOCCNC(=O)COCCOCCNC(=O)CC[C@H](NC(=O)CCCCCCCCCCCCCCCCCCC(=O)O)C(=O)O)NC(=O)[C@H](CCCCN)NC(=O)[C@H](CC(=O)O)NC(=O)[C@H](CC(C)C)NC(=O)C(C)(C)NC(=O)[C@@H](NC(=O)[C@H](CO)NC(=O)[C@H](Cc2ccc(O)cc2)NC(=O)[C@H](CC(=O)O)NC(=O)[C@H](CO)NC(=O)[C@@H](NC(=O)[C@H](Cc2ccccc2)NC(=O)[C@@H](NC(=O)CNC(=O)[C@H](CCC(=O)O)NC(=O)C(C)(C)NC(=O)[C@@H](N)Cc2ccc(O)cc2)[C@@H](C)O)[C@@H](C)O)[C@@H](C)CC)C(=O)N[C@@H](C)C(=O)N[C@@H](Cc2ccccc2)C(=O)N[C@@H](C(C)C)C(=O)N1)C(=O)N[C@@H](C)C(=O)NCC(=O)NCC(=O)N1CCC[C@H]1C(=O)N[C@@H](CO)C(=O)N[C@@H](CO)C(=O)NCC(=O)N[C@@H](C)C(=O)N1CCC[C@H]1C(=O)N1CCC[C@H]1C(=O)N1CCC[C@H]1C(=O)N[C@@H](CO)C(N)=O [WX-001] (H-Y[Aib]EGTFTSDYSI[Aib]LDKK([AEEA-AEEA-γGlu-C20 diacid])AQKAFVEWLIAGGPSSGAPPPS-NH2; lactam 20-24) yielded a half-life (0.048 mpk IV/SC, read-out: Half-life T1/2 (converted)) of 15.5 h, a clearance (IV 0.048 mpk) of 5.28 mL/h/kg and an AUC(0-t) (SC 0.048 mpk, read-out: SC Concentration Integral AUC0-72 h) of 1.55 µM·h. It also gave a bioavailability (subcutaneous, SC 0.048 mpk vs IV 0.048 mpk, read-out: Bioavailability F) of 85.5%.

— patent US20240067702A1, “LACTAM-MODIFIED P[…]” (DONGBAO PURPLE STAR (HANGZHOU) BIOPHARMACEUTICAL CO., LTD., priority 2020, published 2024)
